Experimental data published in ChEMBL document CHEMBL1129417, “Glucose transport-enhancing and hypoglycemic activity of 2-methyl-2-phenoxy-3-phenylpropanoic acids” (1996).

Experiments:
Assay type in all cases: functional
Mus musculus [1] = assay: compound was tested in vivo for hypoglycemic activity in 6-8 week old C57BL/6J ob/ob mouse at 50 mg/kg
Rattus norvegicus [2] = species on record: Rattus norvegicus; assay: Compound was tested for inhibition of gluconeogenesis
3T3-L1 [3] = assay: compound was evaluated for their acute effects in vitro by measuring 2-Deoxyglucose (2DG) uptake in vehicle treated 3T3-L1 adipocytes at 100 uM dose.
L6 = assay: compound was evaluated for their acute effects in vitro by measuring 2-Deoxyglucose (2DG) uptake in vehicle treated L6 […] at 60 uM dose.
Mus musculus [4] = assay: compound was tested in vivo for hypoglycemic activity in 6-8 week old C57BL/6J ob/ob mouse at 25 mg/kg
3T3-L1 [5] = assay: In vitro by measurements of 2-Deoxyglucose (2DG) uptake in vehicle treated 3T3-L1 adipocytes at 3 uM dose.
3T3-L1 [6] = assay: Acute effects in vitro by measuring 2-deoxyglucose (2DG) uptake in vehicle treated 3T3-L1 adipocytes at 30 uM dose.
3T3-L1 [7] = assay: Acute effects in vitro by measuring 2-deoxyglucose (2DG) uptake in vehicle treated 3T3-L1 adipocytes at 10 uM dose.
Mus musculus [8] = assay: In vivo hypoglycemic activity expressed as glucose lowering relative to positive control in 6-8 week old C57BL/6J ob/ob mouse at 5 mg/kg.
Mus musculus [9] = assay: In vivo hypoglycemic activity expressed as glucose lowering relative to positive control in 6-8 week old C57BL/6J ob/ob mouse at 1 mg/kg.
Mus musculus [10] = assay: In vivo hypoglycemic activity expressed as glucose lowering relative to positive control in 6-8 week old C57BL/6J ob/ob mouse at 10 mg/kg
Rattus norvegicus [11] = species on record: Rattus norvegicus; assay: Inhibition of gluconeogenesis in rat
Mus musculus [12] = assay: compound was tested in vivo for hypoglycemic activity expressed as Glucose lowering relative to positive control in 6-8 week old C57BL/6J ob/ob mouse at 0.5 mg/kg
Mus musculus [13] = assay: compound was tested in vivo for hypoglycemic activity expressed as Glucose lowering relative to positive control in 6-8 week old C57BL/6J ob/ob mouse at 25 mg/kg
3T3-L1 [14] = assay: In vitro measurements of 2-Deoxyglucose (2DG) uptake in vehicle treated 3T3-L1 adipocytes at 60 uM dose.
3T3-L1 [15] = assay: compound was evaluated for their acute effects in vitro by measuring 2-Deoxyglucose (2DG) uptake in vehicle treated 3T3-L1 adipocytes at 3 uM dose.
Mus musculus [16] = assay: compound was tested in vivo for hypoglycemic activity expressed as Glucose lowering relative to positive control in 6-8 week old C57BL/6J ob/ob mouse at 50 mg/kg
3T3-L1 [17] = assay: In vitro measurements 2-Deoxyglucose (2DG) uptake in vehicle treated 3T3-L1 adipocytes at 100 uM dose.
Mus musculus [18] = assay: compound was tested in vivo for hypoglycemic activity in 6-8 week old C57BL/6J ob/ob mouse at 10 mg/kg
3T3-L1 [19] = assay: compound was evaluated for their acute effects in vitro by measuring 2-Deoxyglucose (2DG) uptake in vehicle treated 3T3-L1 adipocytes at 1 uM dose.
[20] = Rattus norvegicus, read-out: ED50

Compound `C1CCC(NC2CCCCC2)CC1.CC(C)c1ccc(OC(Cc2cccc(Cl)c2)C(=O)O)cc1` (centres undefined) has a Hypoglycemic activity (Mus musculus [1]) of 32%, an ED50 (Rattus norvegicus [2]; [20]) greater than 50 mg/kg and a Basal uptake (3T3-L1 [3]) of 160%.

In the case of `C1CCC(NC2CCCCC2)CC1.CC(C)c1ccc(OC(Cc2ccccc2C(F)(F)F)C(=O)O)cc1` (centres undefined), the Hypoglycemic activity (Mus musculus [1]) is reported as less than 0%, the ED50 (Rattus norvegicus [2]; [20]) is reported as greater than 50 mg/kg and the Basal uptake (3T3-L1 [3]) is reported as 191%.

Work on `C1CCC(NC2CCCCC2)CC1.CC(C)c1ccc(OC(CCc2ccc(Cl)cc2)C(=O)O)cc1` (centres undefined) yielded a Basal uptake (L6) of 89%, a Hypoglycemic activity (Mus musculus [4]) of 64% and an ED50 (Rattus norvegicus [2]; [20]) of less than 25 mg/kg. It also gave a Basal uptake (3T3-L1 [3]) of 89%.

`CC(C)c1ccc(OC(C)(Cc2ccc(-c3ccccc3)cc2)C(=O)[O-])cc1.[Na+]` (centres undefined) was tested, and the Basal uptake (3T3-L1 [5]) was 122%, the Basal uptake (3T3-L1 [6]) was 126% and the Basal uptake (3T3-L1 [7]) was 129%. For the same compound, the Hypoglycemic activity (Mus musculus [8]) was 93%, the Hypoglycemic activity (Mus musculus [9]) was 58% and the Hypoglycemic activity (Mus musculus [10]) was 116%. The ED50 (Rattus norvegicus [11]; [20]) was 1 mg/kg and the Hypoglycemic activity (Mus musculus [12]) was 21%.

`Cc1ccc(OC(Cc2ccc(Cl)cc2)C(=O)O)cc1` (centres undefined) showed a Hypoglycemic activity (Mus musculus [13]) of 33%, a Basal uptake (L6) of 93% and a Basal uptake (3T3-L1 [14]) of less than 100%. It also gave a Basal uptake (3T3-L1 [6]) of 88%, a Basal uptake (3T3-L1 [7]) of 82% and an ED50 (Rattus norvegicus [11]; [20]) greater than 25 mg/kg.

Compound `CC(C)c1ccc(CC(C)(Oc2ccc(C(C)C)cc2)C(=O)[O-])cc1.[Na+]` (centres undefined) has a Basal uptake (3T3-L1 [6]) of 93%, a Basal uptake (3T3-L1 [7]) of 97% and a Hypoglycemic activity (Mus musculus [8]) of less than 0%. For the same compound, the Hypoglycemic activity (Mus musculus [10]) was 93%, the Basal uptake (3T3-L1 [15]) was 97% and the ED50 (Rattus norvegicus [11]; [20]) was 5 mg/kg.

`CC(C)c1ccc(OC(Cc2ccc(Cl)cc2Cl)C(=O)O)cc1` (centres undefined) was tested, and the Hypoglycemic activity (Mus musculus [16]) was 70%, the Hypoglycemic activity (Mus musculus [8]) was 45% and the Basal uptake (3T3-L1 [17]) was 222%. For the same compound, the Hypoglycemic activity (Mus musculus [10]) was 30% and the ED50 (Rattus norvegicus [11]; [20]) was 10 mg/kg.

`CC(C)c1ccc(OC(Cc2ccc(Br)cc2)C(=O)O)cc1` (centres undefined) showed a Hypoglycemic activity (Mus musculus [16]) of 122%, a Basal uptake (3T3-L1 [17]) of 203% and a Hypoglycemic activity (Mus musculus [10]) of less than 0%. For the same compound, the ED50 (Rattus norvegicus [11]; [20]) was 10 mg/kg.

For `CC(C)c1ccc(OC(C)(Cc2ccc3c(c2)CCC3)C(=O)[O-])cc1.[Na+]` (centres undefined), the Hypoglycemic activity (Mus musculus [8]) was 121%, the Hypoglycemic activity (Mus musculus [9]) was 83% and the Hypoglycemic activity (Mus musculus [10]) was 126%. It also gave an ED50 (Rattus norvegicus [11]; [20]) of 0.5 mg/kg and a Hypoglycemic activity (Mus musculus [12]) of 34%.

`O=C(O)C(Cc1ccc(Cl)cc1)Oc1ccccc1` (centres undefined) showed a Hypoglycemic activity (Mus musculus [13]) of less than 0%, a Basal uptake (L6) of 86% and a Basal uptake (3T3-L1 [14]) of 100%. For the same compound, the ED50 (Rattus norvegicus [11]; [20]) was greater than 25 mg/kg.

`COc1ccc(OC(Cc2ccc(Cl)cc2)C(=O)O)cc1` (centres undefined) showed a Hypoglycemic activity (Mus musculus [13]) of 23%, a Basal uptake (L6) of 98% and an ED50 (Rattus norvegicus [11]; [20]) greater than 25 mg/kg.

`CC(C)c1ccc2c(c1)CCC(Cc1ccc(Cl)cc1)(C(=O)O)O2` (centres undefined) was tested, and the Hypoglycemic activity (Mus musculus [16]) was 119%, the Basal uptake (3T3-L1 [14]) was 114% and the Basal uptake (3T3-L1 [6]) was 80%. For the same compound, the Basal uptake (3T3-L1 [7]) was 82%, the Hypoglycemic activity (Mus musculus [8]) was less than 0% and the ED50 (Rattus norvegicus [11]; [20]) was 5 mg/kg.

In the case of `Cc1ccccc1S(=O)(=O)[N-]CC(C)(Cc1ccc(Cl)cc1)Oc1ccc(C(C)C)cc1.[Na+]` (centres undefined), the Hypoglycemic activity (Mus musculus [18]) is reported as 7% and the ED50 (Rattus norvegicus [2]; [20]) is reported as 10 mg/kg.

In the case of `CC(C)(C)c1ccc(OC(Cc2ccc(Cl)cc2)C(=O)O)cc1` (centres undefined), the Hypoglycemic activity (Mus musculus [13]) is reported as 53%, the Basal uptake (L6) is reported as 84% and the Basal uptake (3T3-L1 [14]) is reported as less than 100%. The Basal uptake (3T3-L1 [6]) was 87%, the Basal uptake (3T3-L1 [7]) was 92% and the ED50 (Rattus norvegicus [11]; [20]) was 25 mg/kg.

`CCC(c1ccc(Cl)cc1)C(C)(Oc1ccc(C(C)C)cc1)C(=O)O` (stereo in doubt; 86) gave a Basal uptake (3T3-L1 [19]) of 97%, a Basal uptake (3T3-L1 [6]) of 95% and a Basal uptake (3T3-L1 [7]) of 91%. For the same compound, the Hypoglycemic activity (Mus musculus [10]; 10 mg/kg) was 71% and the ED50 (Rattus norvegicus [11]; [20]) was less than 10 mg/kg.

With `CCC(c1ccc(Cl)cc1)C(C)(Oc1ccc(C(C)C)cc1)C(=O)O` (stereo in doubt; 87) the Basal uptake (3T3-L1 [19]) was 98%, the Basal uptake (3T3-L1 [6]) was 109% and the Basal uptake (3T3-L1 [7]) was 96%. It also gave a Hypoglycemic activity (Mus musculus [10]; 10 mg/kg) of 32% and an ED50 (Rattus norvegicus [11]) greater than 10 mg/kg.

`CC(C)c1ccc(C(F)C(C)(Cc2ccc(Cl)cc2)C(=O)O)cc1` (stereo in doubt; 94) gave a Hypoglycemic activity (Mus musculus [18]; 10 mg/kg) of 63% and an ED50 (Rattus norvegicus [2]) of 10 mg/kg.

`CC(C)c1ccc(C(F)C(C)(Cc2ccc(Cl)cc2)C(=O)O)cc1` (stereo in doubt; 95) was tested, and the Hypoglycemic activity (Mus musculus [18]; 10 mg/kg) was 50% and the ED50 (Rattus norvegicus [2]; [20]) was 10 mg/kg.
